Reference: article PMC5652740, “Inhibition of HIV-1 infection in humanized mice and metabolic stability of protein phosphatase-1-targeting small molecule 1E7-03” (Oncotarget, 2017)

Experiments:
[1] = Pharmacokinetic analysis in mice after i.p. injection; type: in vivo; conditions: male, BALB/cJ, ip
Procedure: The animal facilities and protocols were approved by Howard University Institutional Animal Care and Use Committee (IACUC). All experimental procedures were in accordance with the NIH Guidelines for the Care and Use of Laboratory Animals. BALB/cJ male mice (8 weeks old, 25–30 g) were purchased from Jackson Laboratory (Bar Harbor, ME, USA) and housed under pathogen-free conditions in HEPA-filtered cages and kept on a 12 h light/dark cycle. Compounds were administered to mice via intraperitoneal (i.p.) injection with maximum achievable doses of 30 mg/kg 1E7-03 (100 μl injection of 8 mM 1E7-03 in 80% DMSO/20% saline) and 100 mg/kg DP1-07 (100 μl injection of 100 mM DP1-07 in 40% propylene glycol/10% DMSO/50% saline). Blood samples were collected at different time points (15 min, 30 min, 1 hr, 3 hr, 6 hrs and 24 hrs) for each group (n=3 mice per group). For each sample, 20 μl of plasma was mixed with 80 μl cold acetone, and centrifuged at 13,000 rpm for 5 min. The supernatant was transferred to a clean test tube and dried in a SpeedVac concentrator. The residue was re-constituted in 50 μl of acetonitrile for LC-MS analysis. Calibration curves were prepared by spiking 1E7-03, DP1, DP3 and DP1-07 into the drug-free mouse plasma and subjected to similar sample extraction procedures. The plasma concentration–time profile of each analyte was constructed and pharmacokinetic parameters were determined by non-compartmental method using Phoenix WinNonlin Version 5.3 (Pharsight Corporation, Mountain View, CA).
A 10 μl aliquots from each sample were loaded to a LC-20AD nano HPLC system (Shimadzu Corporation, Columbia, MD, USA) coupled to LTQ XL Orbitrap mass spectrometer (Thermo Fisher Scientific) with the installed Xcalibur software (version 2.0.7, Thermo Fisher Scientific). Liquid chromatography was carried out on an in-house made nano-HPLC column (Polymicro Technologies Inc., Phoenix, AZ, USA) packed with reverse phase PolySulfoethyl A, 5μM, 200 Å (PolyLC Inc., Columbia, MD, USA). Mobile phase A was 0.1% formic acid in water and mobile phase B - 0.1% formic acid in acetonitrile. The elution was performed at a flow rate of 600 nl/min over 40 min using a multisegment linear gradient of mobile phase B as follows: 0–6.02 min, 1% B; 6.02–6.11 min, 1–2% B; 6.11–20 min, 2−80% B; 20–25 min, 80% B; 25–30 min, 80–85% B; 30–31 min, […]; 31–40 min, 2% B (v/v). The Orbitrap was operated under data-dependent acquisition mode. The spray voltage, capillary temperature and capillary voltage were set to 2.0 kV, 200 °C, and 39.5 V, respectively. Full-scan mass spectra were acquired in Orbitrap over 150−1500 m/z with a resolution of 30 000, followed by MS^n scans by CID activation mode. The precursor ions were fragmented with collision energy of 18 with activation Q of 0.25 and an activation time of 30 ms. Dynamic exclusion was enabled with a repeat count of 2, a repeat duration of 15 s, exclusion duration of 20 s, an exclusion list size of 50. The mass spectrometer was also operated in NL scan of m/z 18.01, 45.05, 71.03 and 72.02 and MRM mode. The MRM transitions were controlled by a segmented program in order to short the scan cycle and increase sensitivity.

[2] = Stability in human liver microsomes; type: in vitro ADME; conditions: 1 hr; for % of Total (Liver microsomes, Human): 10 μM 1E7-03, 37°C, 1E7-03 remaining and DP1, DP3 formed
Procedure: The metabolic stability of 1E7-03 was also investigated using a pool of human and mouse liver microsomes (HMS9PL, MSS9PL, Thermo Scientific) following manufacturer's instructions. In brief, incubations were conducted at 37 ± 1°C in mixtures containing 5 μl of human or mouse liver microsomes (20 mg/ml), 183 μl of potassium phosphate buffer (pH 7.4, 100 mM) and 2 μl of 1E7-03 (10 mM sock solution of 1E7-03 in DMSO was diluted into 1 mM by PBS). The mixture was pre-incubated for 5 min, then initiated the reactions with the addition of 10 μl 20 mM NADPH (Sigma Aldrich). The reactions were terminated after 1 hr incubation by adding 800 μl cold acetone. The mixture was kept at 4°C for 30 min, and the precipitated protein was removed by centrifugation (13, 000 g for 10 min at 4°C). A 250 μl aliquot of supernatant was transferred to a clean test tube and evaporated to dryness using a SpeedVac concentrator. The residue was reconstituted in 50 μl of acetonitrile with 0.1% FA for LC/FT-MS analysis.

PP1 = biological target: T1, PP1 (Homo sapiens, UniProt P62136); experiment: SPR competition with pRb-Tat peptide for binding to PP1; conditions: compounds at 1 μM; for fold reduction of the binding of pRb-Tat to PP1: pRb-Tat 10-100 nM
T1 construct: human PP1α (residues 7–300); His; made in house; host or cells: BL21 (DE3) Escherichia coli, co-expressed with GroEL/GroES chaperones
T1 sequence (P62136 7-300): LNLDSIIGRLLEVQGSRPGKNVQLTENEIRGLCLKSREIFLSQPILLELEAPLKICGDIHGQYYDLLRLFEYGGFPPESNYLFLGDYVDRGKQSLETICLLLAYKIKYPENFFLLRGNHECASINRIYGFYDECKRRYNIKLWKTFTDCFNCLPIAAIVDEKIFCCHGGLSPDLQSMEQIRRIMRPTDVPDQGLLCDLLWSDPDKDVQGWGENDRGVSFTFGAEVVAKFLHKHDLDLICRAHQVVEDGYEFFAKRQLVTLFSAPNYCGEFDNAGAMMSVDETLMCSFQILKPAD
Procedure: The SPR measurements were conducted on Biacore T200 instrument (GE Healthcare, Piscataway, NJ) at 25°C. Recombinant PP1 was immobilized on a CM5 chip by amine coupling (GE Healthcare). PP1 (200 nM) was captured on flow cell 2 in 10 mM acetate buffer, pH 5.0, supplemented with 2 mM MnCl2. The average amount of PP1 immobilized on the surface was 3160 RU. Flow cell 1 was used as a reference surface to subtract background signal. Also injections of the buffer alone were used to provide double reference subtraction. To measure the direct binding of small molecules to PP1, the two flow cells of the sensor chip were primed with running buffer (0.01 M HEPES pH 7.4, 0.15 M NaCl, 0.005% v/v Surfactant P20, 1% DMSO and 2 mM MnCl2). For binding and kinetics experiments, all compounds were diluted in the running buffer, at 40 μM, 20 μM, 10 μM, 5 μM, 2.5 μM, 1.25 μM and 0 μM and then passed over the two flow cells at a flow rate of 100 μl/min for 60 sec. The number of response units was recorded after the subtraction of the reference flow cell's value (Fc2-1). Two repetitions were performed for each injection. Data were analyzed using the BiaEvaluation software of Biacore with a 1:1 binding model. […] All the small molecular weight compounds were used at 1 μM.

CEM T cells = experiment: Cell viability, trypan blue-based assay; conditions: 24 h; for effect on cell viability: up to 180 μM, in words
Procedure: CEM T cells were cultured in 96-well plates at 37°C and incubated with the indicated compound concentrations for 24 hrs. Cell viability was determined using trypan blue-based assay.

[3] = mouse plasma after i.p. 30 mg/kg 1E7-03, parent and its metabolites DP1, DP3, mean, n=3
[4] = mouse plasma after i.p. 30 mg/kg 1E7-03, parent and metabolites DP1, DP3
[5] = mouse, plasma, 30 mg/kg, mouse plasma after i.p. 30 mg/kg 1E7-03, parent and metabolites DP1, DP3
[6] = mouse plasma after i.p. 100 mg/kg DP1-07, parent and products DP1-07P1, DP1-07P2

Row | SMILES | Cmax [1, 3] | AUC(0-t) [1, 4] | MRT last [1, 4] | half-life [1, 4] | Tmax [1, 5] | % of Total (Liver microsomes, Human) [2] | % of 1E7-03 degraded and converted into DP1 ([2]; human liver microsomes) | fold reduction of the binding of pRb-Tat to PP1 (PP1) | viability reduction (CEM T cells; highest tested 180 μM) | AUC(0-t) [1, 6] | MRT last [1, 6] | half-life [1, 6] | Cmax ([1]; mouse plasma after i.p. 100 mg/kg DP1-07, parent and products DP1-07P1, DP1-07P2 (quantified with DP1 and DP3 calibration curves)) | Tmax ([1]; mouse, plasma, 100 mg/kg, mouse plasma after i.p. 100 mg/kg DP1-07, parent and products DP1-07P1, DP1-07P2) | concentration at 24 h ([1]; mouse, plasma, i.p. 100 mg/kg DP1-07, 24 hrs, read-out: concentration present in murine blood 24 hrs post-injection) | competition with pRb-Tat for binding to PP1 (PP1; in words) | effect on cell viability (CEM T cells)
1 | CCNC(=O)NC(=O)C(C)OC(=O)c1c2c(nc3ccccc13)/C(=C/c1ccc(OC)c(OC)c1)CC2 (centres unmarked) [1E7-03] | 3.43 µM | 12.2 µM·h | 2.4 h | 203 min | 0.5 h | 59.39% | 39% | 2-2.5 fold | about 30% |  |  |  |  |  |  |  | 
2 | COc1ccc(/C=C2\CCCc3c2nc2ccccc2c3C(=O)OC(C)C(=O)OC(C)(C)C)cc1OC (centres unmarked) [DP1-07] |  |  |  |  |  |  |  |  |  | 706 µM·h | 10.7 h | 857 min | 42.7 µM | ~6 h | 18 µM |  | 
3 | COc1ccc(/C=C2\CCc3c2nc2ccccc2c3C(=O)OC(C)C(=O)O)cc1OC (centres unmarked) [DP1] | 9.09 µM | 124 µM·h | 4.98 h | 192 min | 3 h | 39.34% |  | 10 fold |  |  |  |  |  |  |  | best competitor | no effect
4 | COc1ccc(/C=C2\CCc3c2nc2ccccc2c3C(=O)O)cc1OC [DP3] | 3.61 µM | 30.7 µM·h | 4.39 h | 146 min | 1 h | 1.27% |  | 2-2.5 fold |  |  |  |  |  |  |  |  | no effect
